Experimental data as given in US4145419A, “Novel imidazobenzoxazines” (Roussel Uclaf, priority 1976, dated 1979).
Like-named read-outs stand apart in the source and are kept apart here.

Tested on: passive cutaneous anaphylaxis
Assay: Passive Cutaneous Anaphylaxis (PCA) in Rats
Type: in vivo
Settings: Rattus norvegicus, dosed immediately prior to intravenous antigen challenge, read-out: ED50 (dose of drug giving 50% inhibition)
Description: Passive Cutaneous Anaphylaxis (PCA) in Rats
Cutaneous anaphylaxis can be induced in rats by intradermal (ID) sensitization with antiserum followed three days later by systemic challenge with antigen. Evans blue dye injected with the antigen is used as a marker to assess the severity of the local response. Anti-allergic drugs inhibit this reaction. This method has been described by OVARY (1962) "Passive Cutaneous Anaphylaxis in Allergology" Page 358-367 Ed. Brown: Pergamon Press:-male rats weighing 180-220 grams are used in groups of seven.
Preparation of Antigen for Sensitization (Alum precipitated ovalbumen)
1. Wash 120 grams of Al(OH)3 gel in 140 ml of saline (use of a macerater facilitates mixing).
2. Centrifuge at 3,000 r.p.m. for about 10 minutes.
3. Resuspend the precipitate with 300 ml of albumen egg powder (1.3 mg/ml) in saline and allow to stand for 30 minutes.
4. Centrifuge at 3,000 r.p.m. for 10 minutes.
5. Weigh the wet precipitate and to each gram weight add 1 ml of saline. Store in refrigerator (Quantity sufficient for 60 rats for a 3 day sensitization program).
Preparation of Antiserum (anti-ovalbumen)
1 ml of the alum precipitated ovalbumen was injected subcutaneously into rats weighing 180-200 grams on days 0,2,4. The rats were bled on day 14 either by cardiac puncture or via the dorsal abdominal aorta. Equal quantities of serum from each animal were pooled and thoroughly mixed and 2 ml aliquots were stored at -20° C. in plastic tubes.
The antiserum for sensitization was diluted so that an ID injection of 0.1 ml into control animals would give an average score of a single spot of between 2.0-3.5 using a 4 point scoring system.
(A) SENSITIZATION: The rats were anaesthetized with Nembutal (40-60 mg/kg i.p.) and were then sensitized by four ID injections (0.1 ml each) on their shaved backs. The animals were then left for a period of three days to develop sensitization.
(B) CHALLENGE: The sensitized rats were dosed orally or intraveneously with the drug immediately prior to intraveneous challage via the superficial penile vein with 1 ml of an antigen/Evans blue mixture (1 mg albumen egg powder in 0.5 ml saline plus 0.5 ml of 1% Evans blue). The injection were speeded up by using an automatic 1 ml self-filling glass syringe. The "challenged" rats were killed after 30 minutes, (usually pithed) and their skin on the dorsal surface was removed. The degree and area of blueing, proportional to the anaphylactic reaction was assessed on a four point scoring system.
1. Total scores for sites 1,2,3 and 4 = X
2. mean value of X for each group = X
3. x t = X for test group X c = X for control group
4. % inhibition = X c - X t/X c X 100/1
5. ed50 = dose of drug giving 50% inhibition.
ED50 values for the compounds tested in the passive cutaneous anaphylaxis screen (in rats) are as follows: […]

| SMILES | ED50 (po, P.O.) | ED50 (I.V.) |
| --- | --- | --- |
| COC(=O)c1cn2c(n1)COc1ccccc1-2 [Example 1, methyl 4H-imidazo-[2,1-c][1,4]-benzoxazine-2-carboxylate] | 10.8 mg/kg |  |
| O=C(O)c1cn2c(n1)COc1ccccc1-2 [Example 2, 4H-imidazo-[2,1-c][1,4]-benzoxazine-2-carboxylic acid] | 2.88 mg/kg | 1.95 mg/kg |
| O=C(OCCN1CCOCC1)c1cn2c(n1)COc1ccccc1-2 [Example 5, 2-morpholinoethyl 4H-imidazo-[2,1-c][1,4]-benzoxazine-2-carboxylate] | 10.7 mg/kg | 1.75 mg/kg |
| O=C(O)c1cn2c(n1)COc1ccc([N+](=O)[O-])cc1-2 [Example 10, 8-nitro-4H-imidazo-[2,1-c][1,4]-benzoxazine-2-carboxylic acid] |  | 2.2 mg/kg |
| CC(=O)Nc1ccc2c(c1)-n1cc(C(=O)O)nc1CO2 [Example 11, 8-acetamido-4H-imidazo-[2,1-c][1,4]-benzoxazine-2-carboxylic acid] | > 10 mg/kg | 0.073 mg/kg |
| O=C(O)C(=O)Nc1ccc2c(c1)-n1cc(C(=O)O)nc1CO2 [Example 12, 8-oxalamino-4H-imidazo-[2,1-c][1,4]-benzoxazine-2-carboxylic acid] | 3.85 mg/kg |  |
